Key:
BRAF = target: T1, BRAF (Homo sapiens, UniProt P15056); test: BRAF kinase activity assay (ADP-Glo); type: biochemical; conditions: Table 3; 10 μM ATP, kinase-dead MEK1 substrate
T1 construct: GST; purchased Millipore Sigma B4062-10UG
Description: (§1) Compound preparation: solid samples of each substance in 1dram vials were suspended in DMSO (Fisher Scientific) at a stock concentration of 20 mM. Stocks were kept at −20° C. and protected from light. If solubility of the compound at 20 mM appeared to be an issue, the initial concentration of the DMSO stock was changed to 10 mM or 5 mM.
(§2) In vitro enzymatic reactions were used for evaluating compounds intrinsic activity against BRAF, CRAF and ARAF. For BRAF and CRAF, 0.375 nM of purified GST-tagged kinases (cat. No. B4062-10UG and cat. No. R1656-10UG respectively from Millipore Sigma) were incubated with 75 nM of kinase-dead MEK1 substrate (cat. No. 40075; BPS Bioscience) in the presence of 10 μM of Ultrapure ATP (cat. No. V9102; Promega; part V915A) with and without the test compound in a buffer containing 50 mM HEPES pH 7.5, 10 mM MgCl2, 1 mM EDTA, 0.01% Brij-35 and 2 mM DTT. Separate reactions were performed with the MEK1 substrate and ATP as a blank control. ARAF kinase reactions were rigorously the same with the exception that kinase concentration was raised to 3.75 nM (cat. No. 1768-0000-1; Reaction Biology).
(§3) For compound treatment, 5 μL/well of test substance solution are placed in a 384-well proxyplate (Perkin Elmer) and mixed with 2× concentrated kinase reactions. The dilution series is selected so that nine concentrations cover a range from 100 nM to 0.01 nM. […] The final concentration of DMSO in the assay is set at 0.05%.
(§4) BRAF and CRAF kinase reactions were carried out for a total of 2 hours at 30° C. and then stopped by 1/2 dilution in ADP-Glo Reagent (cat. No. V9102; Promega; part V912C). Reactions were then incubated for 1 h at room temperature before addition of one volume of Kinase Detection Reagent (cat. No. V9102; Promega; part V917A). Plates were then equilibrated at room temperature for 30 minutes before detection of luminescence on a Synergy Neo2 plate reader (Biotek). The effect of each compound dilution on BRAF and CRAF kinase activity was expressed as % inhibition and calculated as follows. First, the internal 100% inhibition control (average of luminescence in kinase reactions comprising kinase dead MEK1 substrate alone) was subtracted from each data point. The average of DMSO (vehicle) controls (set as 0% inhibition) was established and used to calculate % inhibition:
(§5) IC50 values were obtained by plotting the kinase inhibition values and fitting the dose-activity curves using a log(agonist) versus response—variable slope (four parameters) function using either GraphPadPrism (V7.0) or Dotmatics Screening Ultra platform. Standards included in the ARAF kinase assay were Belvarafenib (MedChem Express cat. No. HY-109080; CAS No. 1446113-23-0), LXH254 (MedChem Express cat. No. HY-112089; CAS No. 1800398-38-2) and BGB283 (cat. No. HY-18957; CAS No. 1446090-79-4).

pERK, HCT116 cells = test: Phospho-ERK inhibition, AlphaLISA p-ERK 1/2, HCT-116; type: cell-based, human; conditions: Table 3; for IC50: HCT116 cells (KRAS G13D), 1 h treatment; for HCT116 pERK (Ymin %): lowest % inhibition value of the pERK IC50 curve, above −20% = no paradoxical induction
Description: All cancer cell lines (A375, A101D, A2058, RKO, HT29 SK-MEL 30, IPC298, HepG2, HCT-116, Lovo, SW620, SW480, NCI-H358, NCI-H2122, Calu-6, NCIH2087, NCIH1755, NCIH1666 and Mewo) were obtained from ATCC and cultured in RPM1-1640 medium (Gibco) supplemented with 5% heat inactivated fetal bovine serum (FBS, Wisent) at 37° C. under 5% CO2. Cells were maintained in T175 flasks (Greiner). They were passaged by removing the culture medium, washing once in 10 mL of room temperature Phosphate Buffered Saline (PBS; Wisent) and incubating at 37° C. with 2 mL of 0.05% Trypsin (Thermo-Fisher). Trypsin was then inactivated by adding complete growth medium and the cells were then replated in a T175 culture dish at the appropriate dilution. All cell lines were routinely tested for mycoplasma contamination. Tissue type and mutational status of each cell line can be found in Table B.
(c) Measurement of Phospho-ERK Inhibition in Cultivated Human Cancer Cell Lines by the AlphaLISA® SureFire® Ultra™ p-ERK 1/2 (Thr2O2/Tyr204)
AlphaLISA® SureFire® Ultra™ p-ERK 1/2 (Thr202/Tyr204) analysis was conducted on cells plated in 100 μL of complete RPMI-1640 growth medium in 96-well flat-bottomed transparent dishes (Costar) at a density indicated in Table C. Cells were maintained overnight at 37° C. under 5% CO2 before treatment with compounds' dilution series for one hour. The cell density in cells/cm^2 corresponds to cell number divided by the area of one well of a 96-well plate (0.143 cm^2).
In a dilution series 100 μL/well of test substance dilution prepared in complete RPMI-1640 growth media was added to the cells. The dilution series is selected so that ten concentrations cover a range from 10 μM to 0.33 nM. If necessary, the initial concentration of 10 μM is increased to 100 μM or lowered to 1 μM (as in the case of A375 and H1666 cells, which are generally more sensitive to the compounds) and further dilution is carried out accordingly. The final concentration of DMSO in the assay is set at 0.5%.
After treatment, media was removed, and cells were lysed in 50 μL of 1× AlphaScreen Ultra Lysis Buffer (Perkin Elmer). The AlphaLISA® SureFire® Ultra™ p-ERK 1/2 (Thr202/Tyr204) (PerkinElmer) reactions were performed with 5 μL of cell lysate according to the manufacturer's specifications in 384-well proxyplates (Perkin Elmer) followed by overnight incubation of the reactions at room temperature in a humidified chamber. After completion of the reactions, the signals were recorded on an EnVision plate reader (Perkin Elmer) using built in AlphaLISA® settings.
The effect of each compound dilution on the pERK signal was expressed in % inhibition and calculated as follows. An internal 100% inhibition control (1 μM trametinib, cat. No. HY-10999; MedChem Express; CAS No. 871700-17-3) was included in each plate and used as a measure of pERK background. First, the value obtained for trametinib was subtracted from each data point. The average of DMSO (vehicle) controls (set as 0% inhibition) was established and used to calculate % inhibition:
The ability of each compound to inhibit pERK signal was expressed as an IC50 value obtained by plotting the inhibition values for each data point of a dilution series and fitting the obtained curves using a log(agonist) versus response—variable slope (four parameters) function using GraphPadPrism (V7.0) or Dotmatics Screening Ultra platform.
When present, paradoxical pERK induction is inferred from the negative % inhibition values observed in the pERK IC50 curves of a compound.

CRAF = target: T2, CRAF (Homo sapiens, UniProt P04049); test: CRAF kinase activity assay (ADP-Glo); type: biochemical; conditions: Table 3; 10 μM ATP, kinase-dead MEK1 substrate
T2 construct: fused on or other part: GST tag (N-terminal according to the vendor's product)
Description: as §1, §2, §3, §4, §5

T2 sequence (P04049 whole entry Y340E/Y341E, form open, the tested form may be a part): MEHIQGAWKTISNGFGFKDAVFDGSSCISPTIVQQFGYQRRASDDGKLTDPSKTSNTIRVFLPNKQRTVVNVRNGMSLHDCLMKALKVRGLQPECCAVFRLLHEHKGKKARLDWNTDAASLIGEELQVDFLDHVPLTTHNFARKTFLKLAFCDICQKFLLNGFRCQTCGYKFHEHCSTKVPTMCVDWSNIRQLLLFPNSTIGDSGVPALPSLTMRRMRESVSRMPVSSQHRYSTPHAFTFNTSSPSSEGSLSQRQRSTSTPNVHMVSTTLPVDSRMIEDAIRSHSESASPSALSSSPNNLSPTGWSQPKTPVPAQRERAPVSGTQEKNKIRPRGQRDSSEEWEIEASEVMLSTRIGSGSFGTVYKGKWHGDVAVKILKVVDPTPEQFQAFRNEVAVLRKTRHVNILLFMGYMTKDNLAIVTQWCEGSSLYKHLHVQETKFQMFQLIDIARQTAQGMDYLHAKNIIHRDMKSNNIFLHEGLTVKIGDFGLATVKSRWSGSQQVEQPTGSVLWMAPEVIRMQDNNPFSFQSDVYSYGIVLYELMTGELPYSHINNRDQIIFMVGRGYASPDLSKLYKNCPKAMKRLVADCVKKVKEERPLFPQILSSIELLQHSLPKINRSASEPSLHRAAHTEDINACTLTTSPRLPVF
T1 sequence (P15056 whole entry): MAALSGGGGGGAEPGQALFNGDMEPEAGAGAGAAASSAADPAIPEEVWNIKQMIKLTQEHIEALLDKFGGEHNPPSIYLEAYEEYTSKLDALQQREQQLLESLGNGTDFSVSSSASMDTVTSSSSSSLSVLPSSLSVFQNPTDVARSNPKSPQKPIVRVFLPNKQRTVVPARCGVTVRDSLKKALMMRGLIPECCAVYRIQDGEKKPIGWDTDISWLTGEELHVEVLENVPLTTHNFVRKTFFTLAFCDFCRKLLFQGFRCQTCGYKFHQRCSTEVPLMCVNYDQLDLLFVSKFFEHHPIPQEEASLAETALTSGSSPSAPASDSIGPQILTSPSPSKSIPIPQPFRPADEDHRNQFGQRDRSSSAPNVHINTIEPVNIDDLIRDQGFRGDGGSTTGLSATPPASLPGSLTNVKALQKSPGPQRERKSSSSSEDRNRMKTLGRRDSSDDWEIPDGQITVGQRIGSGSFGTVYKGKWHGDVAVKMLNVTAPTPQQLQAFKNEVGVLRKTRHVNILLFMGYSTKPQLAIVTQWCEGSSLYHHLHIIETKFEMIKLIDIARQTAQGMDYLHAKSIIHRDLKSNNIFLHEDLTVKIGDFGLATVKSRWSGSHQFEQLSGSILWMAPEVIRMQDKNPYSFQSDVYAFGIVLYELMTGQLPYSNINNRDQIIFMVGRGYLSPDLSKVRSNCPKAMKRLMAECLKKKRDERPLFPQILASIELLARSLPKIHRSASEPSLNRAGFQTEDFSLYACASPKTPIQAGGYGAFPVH

SMILES	IC50 (BRAF)	IC50 (pERK, HCT116 cells)	HCT116 pERK (Ymin %) (pERK, HCT116 cells)	IC50 (CRAF)	IC50 (pERK, HCT116 cells; Homo sapiens, HCT-116)
CN(CC(F)F)S(=O)(=O)c1cn(-c2nc3c(Nc4c(F)ccc(NS(=O)(=O)c5cccc(Cl)c5Cl)c4F)ncnc3s2)c2ccccc12 [Example 75]	> 10 nM	1000 to 10000 nM	−5%	10 to 50 nM	–
CN1CCN(S(=O)(=O)c2cn(-c3nc4c(Nc5c(F)ccc(NS(=O)(=O)c6cccc(Cl)c6Cl)c5F)ncnc4s3)c3ccccc23)CC1 [Example 12]	1 to 10 nM	–	–	10 to 50 nM	1000 to 10000 nM
Cc1c(Cl)cccc1S(=O)(=O)Nc1ccc(F)c(Nc2ncnc3sc(-n4cnc5ccccc54)nc23)c1F [Example 6]	1 to 10 nM	500 to 1000 nM	−4%	< 10 nM	–
Cc1c(F)cccc1S(=O)(=O)Nc1ccc(F)c(Nc2ncnc3sc(-n4nc(C(=O)N5CCC(CO)C5)c5ccccc54)nc23)c1F (centres unmarked) [Example 32]	1 to 10 nM	1000 to 10000 nM	−13%	10 to 50 nM	–
N#CC1CCN(c2cccc3c2ncn3-c2nc3c(Nc4c(F)ccc(NS(=O)(=O)c5cccc(Cl)c5Cl)c4F)ncnc3s2)CC1 [Example 140]	1 to 10 nM	< 500 nM	−10%	10 to 50 nM	–
O=S(=O)(Nc1ccc(F)c(Nc2ncnc3sc(-n4cnc5c(F)cc(F)cc54)nc23)c1F)c1cccc(Cl)c1Cl [Example 71]	1 to 10 nM	–	–	< 10 nM	< 500 nM
O=S1(=O)CCN(c2cccc3c2ncn3-c2nc3c(Nc4c(F)ccc(NS(=O)(=O)c5cccc(Cl)c5Cl)c4F)ncnc3s2)CC1 [Example 158]	< 1 nM	< 500 nM	4%	< 10 nM	–
Cc1c(F)cccc1S(=O)(=O)Nc1ccc(F)c(Nc2ncnc3sc(-n4nc(C(=O)N(C)CCN(C)C)c5ccccc54)nc23)c1F [Example 27]	1 to 10 nM	500 to 1000 nM	−3%	10 to 50 nM	–
COc1ccc(S(=O)(=O)Nc2ccc(F)c(Nc3ncnc4sc(-n5cnc6c(N)cccc65)nc34)c2F)c(C)c1Cl [Example 13]	1 to 10 nM	1000 to 10000 nM	−14%	10 to 50 nM	–
O=S(=O)(Nc1ccc(F)c(Nc2ncnc3sc(-n4cnc5c(N6CCC7(CCCO7)CC6)cccc54)nc23)c1F)c1cccc(Cl)c1Cl [Example 136]	> 10 nM	< 500 nM	−17%	10 to 50 nM	–

Source: patent publication US20260137697A1, “THIAZOLO[5,4-D]PYRIMIDINE COMPOUNDS, COMPOSITIONS COMPRISING THEM AND USES THEREOF” (University de Montreal, priority 2022, published 2026)
